This data set can be described thus: in vitro. Type of data set: in vitro ADME. The note with it: human. An outline of the steps:
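Permeability measured in both directions across 19-day Caco-2 layers with TEER above 600 […], incubated at 37° C without shaking; donor and receiver sampled at 10 and 90 min for LC/MS/MS. Derived values: Papp (cm/s), efflux ratio, recovery.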

Where [1] appears, read: Caco-2 monolayer, apical to basolateral, 90-minute incubation, read-out: Papp, A-B.
The mark [2] stands for this setting: Caco-2 monolayer, basolateral to apical, 90-minute incubation, read-out: Papp, B-A.
[3] abbreviates: Caco-2 monolayer, ER>2 indicates potential efflux transporter substrate, read-out: ER (efflux ratio).

Where two headings read alike, the source gives them in different places. Bounds are passed on as bounds.

For the compound `Cc1oc(=O)oc1COC(=O)Nc1ncnn2c([C@]3(C#N)O[C@H](COC(=O)Cc4ccccc4)[C@@H](OC(=O)[C@@H](N)C(C)C)[C@H]3O)ccc12` [Compound 383, (2R,3S,4R,5R)-5-cyano-4-hydroxy-5-(4-((((5-methyl-2-oxo-1,3-dioxol-4-yl)methoxy)carbonyl)amino)pyrrolo[2,1-f][1,2,4]triazin-7-yl)-2-((2-phenylacetoxy)methyl)tetrahydrofuran-3-yl L-valinate], the Papp A→B (commonly how fast a substance crosses the layer from the apical side) at 90 min under setting [1] was less than 1 ×10⁻⁶ cm/s. Under setting [2], the Papp B→A (usually how fast a substance crosses the layer from the basolateral side) at 90 min is less than 1 ×10⁻⁶ cm/s.

As for `CCCC(=O)Nc1ncnn2c([C@]3(C#N)O[C@H](COC(=O)[C@@H](N)C(C)C)[C@@H](OC(=O)CC)[C@H]3O)ccc12` [Compound 357, ((2R,3S,4R,5R)-5-(4-butyramidopyrrolo[2,1-f][1,2,4]triazin-7-yl)-5-cyano-4-hydroxy-3-(propionyloxy)tetrahydrofuran-2-yl)methyl L-valinate], where the note is “Caco-2”, the Papp A→B at 90 min is 3.1 ×10⁻⁶ cm/s, the Papp B→A at 90 min is 6 ×10⁻⁶ cm/s and the efflux ratio at 90 min came out at 1.9.

Turning to `CC(=O)OC[C@H]1O[C@@](C#N)(c2ccc3c(N)ncnn23)[C@H](O)[C@@H]1OC(=O)Cc1ccccc1` [Compound 52, (2R,3S,4R,5R)-2-(acetoxymethyl)-5-(4-aminopyrrolo[2,1-f][1,2,4]triazin-7-yl)-5-cyano-4-hydroxytetrahydrofuran-3-yl 2-phenylacetate], under setting [1], the Papp A→B at 90 min amounted to 1.4 ×10⁻⁶ cm/s. The Papp B→A at 90 min under setting [2] was found to be 0.89 ×10⁻⁶ cm/s. Moreover, the efflux ratio at 90 min under setting [3] amounted to 0.65.

Consider `CC(C)(C)[C@H](N)C(=O)OC[C@H]1O[C@@](C#N)(c2ccc3c(N)ncnn23)[C@H](O)[C@@H]1OC(=O)CC1CCCCC1` [Compound 371, ((2R,3S,4R,5R)-5-(4-aminopyrrolo[2,1-f][1,2,4]triazin-7-yl)-5-cyano-3-(2-cyclohexylacetoxy)-4-hydroxytetrahydrofuran-2-yl)methyl (S)-2-amino-3,3-dimethylbutanoate], for which, under “Caco-2”, the Papp A→B at 90 min was 15 ×10⁻⁶ cm/s, the Papp B→A at 90 min came out at 21 ×10⁻⁶ cm/s and the efflux ratio at 90 min was found to be 1.3.

For the compound `CCCCCOC(=O)Nc1ncnn2c([C@]3(C#N)O[C@H](COC(=O)[C@@H](N)C(C)C)[C@@H](O)[C@H]3O)ccc12` [Compound 86, ((2R,3S,4R,5R)-5-cyano-3,4-dihydroxy-5-(4-(((pentyloxy)carbonyl)amino)pyrrolo[2,1-f][1,2,4]triazin-7-yl)tetrahydrofuran-2-yl)methyl L-valinate], for the setting “Caco-2”, the Papp A→B at 90 min worked out at 0.33 ×10⁻⁶ cm/s, the Papp B→A at 90 min turned out to be 11 ×10⁻⁶ cm/s and the efflux ratio at 90 min was 35.

Regarding `CNc1nc(N)nc2c1ncn2[C@@H]1O[C@H](COC(=O)C(C)C)[C@@H](OC(=O)CC(C)C)[C@@]1(C)F` [Compound 187, (2R,3R,4R,5R)-5-(2-amino-6-(methylamino)-9H-purin-9-yl)-4-fluoro-2-((isobutyryloxy)methyl)-4-methyltetrahydrofuran-3-yl 3-methylbutanoate], where the note is “Caco-2”, the Papp A→B at 90 min was determined as 11 ×10⁻⁶ cm/s, the Papp B→A at 90 min was 2.4 ×10⁻⁶ cm/s and the efflux ratio at 90 min was 0.22.

`CCC(=O)OC[C@H]1O[C@@H](n2cnc3c(NC)nc(N)nc32)[C@](C)(F)[C@@H]1O` [Compound 180, ((2R,3R,4R,5R)-5-(2-amino-6-(methylamino)-9H-purin-9-yl)-4-fluoro-3-hydroxy-4-methyltetrahydrofuran-2-yl)methyl propionate]: the Papp A→B at 90 min under setting [1] came out at 4.6 ×10⁻⁶ cm/s. Besides, the Papp B→A at 90 min under setting [2] amounted to 7.6 ×10⁻⁶ cm/s. In addition, the efflux ratio at 90 min under setting [3] amounted to 1.6.

Take `CC(=O)OC[C@H]1O[C@@](C#N)(c2ccc3c(N)ncnn23)[C@H](O)[C@@H]1OC(=O)C(C)C` [Compound 54, (2R,3S,4R,5R)-2-(acetoxymethyl)-5-(4-aminopyrrolo[2,1-f][1,2,4]triazin-7-yl)-5-cyano-4-hydroxytetrahydrofuran-3-yl isobutyrate]: under “Caco-2”, the Papp A→B at 90 min worked out at 2.6 ×10⁻⁶ cm/s, the Papp B→A at 90 min was determined as 2.4 ×10⁻⁶ cm/s and the efflux ratio at 90 min was determined as 0.94.

In the case of `CC(C)[C@H](N)C(=O)O[C@H]1[C@@H](O)[C@](C#N)(c2ccc3c(NC(=O)OCOC(=O)C(C)(C)C)ncnn23)O[C@@H]1COC(=O)CC1CCCCC1` [Compound 361, (2R,3S,4R,5R)-5-cyano-2-((2-cyclohexylacetoxy)methyl)-4-hydroxy-5-(4-((((pivaloyloxy)methoxy)carbonyl)amino)pyrrolo[2,1-f][1,2,4]triazin-7-yl)tetrahydrofuran-3-yl L-valinate], for the setting “Caco-2”, the Papp A→B at 90 min was 0.15 ×10⁻⁶ cm/s, the Papp B→A at 90 min amounted to 0.05 ×10⁻⁶ cm/s and the efflux ratio at 90 min is 0.33.

As for `CC(=O)Nc1ncnn2c([C@]3(C#N)O[C@H](COC(=O)CC4CCCCC4)[C@@H](OC(=O)[C@@H](N)C(C)C)[C@H]3O)ccc12` [Compound 348, (2R,3S,4R,5R)-5-(4-acetamidopyrrolo[2,1-f][1,2,4]triazin-7-yl)-5-cyano-2-((2-cyclohexylacetoxy)methyl)-4-hydroxytetrahydrofuran-3-yl L-valinate], under “Caco-2”, the Papp A→B at 90 min is 0.43 ×10⁻⁶ cm/s, the Papp B→A at 90 min was 13 ×10⁻⁶ cm/s and the efflux ratio at 90 min was 30.

In the case of `CNc1nc(N)nc2c1ncn2[C@@H]1O[C@H](COC(C)=O)[C@@H](OC(=O)CC(C)C)[C@@]1(C)F` [Compound 186, (2R,3R,4R,5R)-2-(acetoxymethyl)-5-(2-amino-6-(methylamino)-9H-purin-9-yl)-4-fluoro-4-methyltetrahydrofuran-3-yl 3-methylbutanoate], for the setting “Caco-2”, the Papp A→B at 90 min worked out at 19 ×10⁻⁶ cm/s, the Papp B→A at 90 min turned out to be 7.2 ×10⁻⁶ cm/s and the efflux ratio at 90 min amounted to 0.38.

Regarding `CNc1nc(N)nc2c1ncn2[C@@H]1O[C@H](COC(C)=O)[C@@H](O)[C@@]1(C)F` [Compound 178, ((2R,3R,4R,5R)-5-(2-amino-6-(methylamino)-9H-purin-9-yl)-4-fluoro-3-hydroxy-4-methyltetrahydrofuran-2-yl)methyl acetate], under “Caco-2”, the Papp A→B at 90 min stood at 6.7 ×10⁻⁶ cm/s, the Papp B→A at 90 min stood at 4.4 ×10⁻⁶ cm/s and the efflux ratio at 90 min came out at 0.7.

For `N#C[C@@]1(c2ccc3c(NC(=O)c4ccccc4)ncnn23)O[C@H](CO)[C@@H](OC(=O)CC2CCCCC2)[C@H]1O` [Compound 342, (2R,3S,4R,5R)-5-(4-benzamidopyrrolo[2,1-f][1,2,4]triazin-7-yl)-5-cyano-4-hydroxy-2-(hydroxymethyl)tetrahydrofuran-3-yl 2-cyclohexylacetate], for the setting “Caco-2”, the Papp A→B at 90 min came out at 1.1 ×10⁻⁶ cm/s, the Papp B→A at 90 min came to 0.39 ×10⁻⁶ cm/s and the efflux ratio at 90 min stood at 0.34.

For `CNc1nc(N)nc2c1ncn2[C@@H]1O[C@H](COC(C)=O)[C@@H](OC(=O)Cc2ccccc2)[C@@]1(C)F` [Compound 210, (2R,3R,4R,5R)-2-(acetoxymethyl)-5-(2-amino-6-(methylamino)-9H-purin-9-yl)-4-fluoro-4-methyltetrahydrofuran-3-yl 2-phenylacetate], the Papp A→B at 90 min under setting [1] is 15 ×10⁻⁶ cm/s. Further, the Papp B→A at 90 min under setting [2] amounted to 5.8 ×10⁻⁶ cm/s. Also, the efflux ratio at 90 min under setting [3] worked out at 0.38.

As to `CCC(=O)OC[C@H]1O[C@@](C#N)(c2ccc3c(N)ncnn23)[C@H](O)[C@@H]1OC(=O)Cc1ccccc1` [Compound 68, ((2R,3S,4R,5R)-5-(4-aminopyrrolo[2,1-f][1,2,4]triazin-7-yl)-5-cyano-4-hydroxy-3-(2-phenylacetoxy)tetrahydrofuran-2-yl)methyl propionate], under setting [1], the Papp A→B at 90 min was 3.3 ×10⁻⁶ cm/s. Moreover, under setting [2], the Papp B→A at 90 min is 9.3 ×10⁻⁶ cm/s. Moreover, the efflux ratio at 90 min under setting [3] worked out at 2.8.

Consider `N#C[C@@]1(c2ccc3c(N)ncnn23)O[C@H](COC(=O)Cc2ccccc2)[C@@H](OC(=O)Cc2ccccc2)[C@H]1O` [Compound 44, (2R,3S,4R,5R)-5-(4-aminopyrrolo[2,1-f][1,2,4]triazin-7-yl)-5-cyano-4-hydroxy-2-((2-phenylacetoxy)methyl)tetrahydrofuran-3-yl 2-phenylacetate], for which, under setting [1], the Papp A→B at 90 min worked out at 9.8 ×10⁻⁶ cm/s. Moreover, the Papp B→A at 90 min under setting [2] worked out at 25 ×10⁻⁶ cm/s. Moreover, the efflux ratio at 90 min under setting [3] amounted to 2.5.

In the case of `N#C[C@@]1(c2ccc3c(N)ncnn23)O[C@H](COC(=O)CC2CCC3(CCCC3)CC2)[C@@H](O)[C@H]1O` [Compound 279, ((2R,3S,4R,5R)-5-(4-aminopyrrolo[2,1-f][1,2,4]triazin-7-yl)-5-cyano-3,4-dihydroxytetrahydrofuran-2-yl)methyl 2-(spiro[4.5]decan-8-yl)acetate], where the note is “Caco-2”, the Papp A→B at 90 min was found to be 1.4 ×10⁻⁶ cm/s, the Papp B→A at 90 min worked out at 0.9 ×10⁻⁶ cm/s and the efflux ratio at 90 min amounted to 0.64.

As for `CCCCC(=O)Nc1ncnn2c([C@]3(C#N)O[C@H](CO)[C@@H](O)[C@H]3O)ccc12` [Compound 264, N-(7-((2R,3R,4S,5R)-2-cyano-3,4-dihydroxy-5-(hydroxymethyl)tetrahydrofuran-2-yl)pyrrolo[2,1-f][1,2,4]triazin-4-yl)pentanamide], where the note is “Caco-2”, the Papp A→B at 90 min came to 0.03 ×10⁻⁶ cm/s, the Papp B→A at 90 min stood at 0.53 ×10⁻⁶ cm/s and the efflux ratio at 90 min turned out to be 20.

For the compound `CC(=O)OC[C@H]1O[C@@](C#N)(c2ccc3c(NC(=O)c4ccccc4)ncnn23)[C@H](O)[C@@H]1O` [Compound 103, ((2R,3S,4R,5R)-5-(4-benzamidopyrrolo[2,1-f][1,2,4]triazin-7-yl)-5-cyano-3,4-dihydroxytetrahydrofuran-2-yl)methyl acetate], for the setting “Caco-2”, the Papp A→B at 90 min was found to be 1.5 ×10⁻⁶ cm/s, the Papp B→A at 90 min turned out to be 12 ×10⁻⁶ cm/s and the efflux ratio at 90 min was found to be 8.

On to `CNc1nc(NC(=O)CC2CCCCC2)nc2c1ncn2[C@@H]1O[C@H](COC(=O)CC2CCCCC2)[C@@H](O)[C@@]1(C)F` [Compound 292, ((2R,3R,4R,5R)-5-(2-(2-cyclohexylacetamido)-6-(methylamino)-9H-purin-9-yl)-4-fluoro-3-hydroxy-4-methyltetrahydrofuran-2-yl)methyl 2-cyclohexylacetate], for which, where the note is “Caco-2”, the Papp A→B at 90 min stood at 2 ×10⁻⁶ cm/s, the Papp B→A at 90 min was found to be 1 ×10⁻⁶ cm/s and the efflux ratio at 90 min is 0.5.
